O=C(O)c1cccc(C(=O)O)c1
Settings | solubility (mole fraction)
in isopropanol, 278.55 K | 0.00218
in isopropanol, 279.87 K | 0.00226
in isopropanol, 283.25 K | 0.00255
in isopropanol, 288.15 K | 0.00291
in isopropanol, 293.15 K | 0.00325
in isopropanol, 298.15 K | 0.00396
in isopropanol, 303.05 K | 0.00459
in isopropanol, 308.25 K | 0.00535
in isopropanol, 313.15 K | 0.00607
in isopropanol, 318.25 K | 0.00675
in methanol, 278.15 K | 0.00253
in methanol, 283.25 K | 0.00276
in methanol, 288.05 K | 0.00314
in methanol, 293.25 K | 0.00346
in methanol, 298.75 K | 0.00379
in methanol, 302.65 K | 0.00411
in methanol, 307.95 K | 0.00456
in n-butanol, 278.06 K | 0.00187
in n-butanol, 283.11 K | 0.00216
in n-butanol, 288.27 K | 0.00234
in n-butanol, 293.3 K | 0.00265
in n-butanol, 298.06 K | 0.00315
in n-butanol, 303.66 K | 0.00366
in n-butanol, 308.36 K | 0.00386
in n-butanol, 312.66 K | 0.00474
in n-butanol, 317.94 K | 0.0052
in n-hexanol, 298.48 K | 0.00244
in n-hexanol, 302.97 K | 0.0032
in n-hexanol, 308.15 K | 0.00362
in n-hexanol, 312.7 K | 0.00424
in n-hexanol, 317.67 K | 0.00477
in n-hexanol, 320.84 K | 0.00544
in n-pentanol, 303.05 K | 0.00408
in n-pentanol, 308.05 K | 0.00532
in n-pentanol, 313.15 K | 0.00594
in n-pentanol, 318.15 K | 0.00651
in n-pentanol, 323.05 K | 0.0074
in n-propanol, 278.15 K | 0.00169
in n-propanol, 280.84 K | 0.0019
in n-propanol, 283.34 K | 0.0022
in n-propanol, 288.17 K | 0.00249
in n-propanol, 293.15 K | 0.00268
in n-propanol, 298.35 K | 0.0032
in n-propanol, 304.05 K | 0.00377
in n-propanol, 308.25 K | 0.00425
in n-propanol, 313.15 K | 0.00473
in n-propanol, 317.55 K | 0.00528
in sec-butanol, 283.05 K | 0.00145
in sec-butanol, 288.05 K | 0.00172
in sec-butanol, 293.15 K | 0.00209
in sec-butanol, 298.25 K | 0.00235
in sec-butanol, 303.45 K | 0.00263
in sec-butanol, 308.25 K | 0.00311
in sec-butanol, 313.25 K | 0.00346
in sec-butanol, 318.15 K | 0.00391
